Measured values from patent US10023592B2, “Bromodomain inhibitors” (Celgene Quanticel Research, Inc., priority 2013, dated 2018).
Where a name gives a salt, the structure may show the parent alone.

Each molecule was assayed against BRD4(BD1) (Homo sapiens (Human), UniProt O60885) (assay: In vitro enzyme inhibition assay (BRD4 AlphaScreen)). Conditions: class symbols A/B/C.
Type: binding
Description: His-tagged BRD4 was cloned, expressed and purified to homogeneity. […] BRD4 binding and inhibition was assessed by monitoring the interaction of biotinylated H4-tetraacetyl peptide (AnaSpec, H4K5/8/12/16(Ac), biotin-labeled) with the target using the AlphaScreen technology (Life Technologies). […] After 20 min incubation at room temp, Alpha streptavidin donor beads and Nickel Chelate acceptor beads were added to a final concentration of 5 μg/mL.
The ability of the compounds disclosed herein to inhibit BRD4 activity was quantified and the respective IC50 value was determined.

**Q.** With Cc1cc(=O)n(C)nc1-c1cc(S(C)(=O)=O)ccc1OCC1CC1 [Example 137, 6-[2-(cyclopropylmethoxy)-5-methylsulfonylphenyl]-2,5-dimethylpyridazin-3-one] as the molecule, how does the IC50 read?
**A.** Its IC50 is 500 to 5000 nM.

**Q.** How did the IC50 turn out when CCN(CC)c1cc(-c2ccc(OC)c(NS(C)(=O)=O)c2)cn(C)c1=O [Example 114, N-[5-[5-(diethylamino)-1-methyl-6-oxopyridin-3-yl]-2-methoxyphenyl]methanesulfonamide] was run?
**A.** Its IC50 is 500 to 5000 nM.

**Q.** With Cn1cc(-c2ccc3c(c2)NCCO3)c2ccccc2c1=O [Example 19, 4-(3,4-dihydro-2H-1,4-benzoxazin-6-yl)-2-methylisoquinolin-1-one] as the molecule, how does the IC50 read?
**A.** The IC50 was 500 to 5000 nM.

**Q.** With COc1ccc(-c2cn(C)c(=O)c3ccccc23)cc1S(N)(=O)=O [Example 16, 2-methoxy-5-(2-methyl-1-oxoisoquinolin-4-yl) benzenesulfonamide] as the molecule, how does the IC50 read?
**A.** The IC50 was 500 to 5000 nM.

**Q.** Cn1cc(-c2cc(N)ccc2F)c2ccccc2c1=O [Example 23, 4-(5-amino-2-fluorophenyl)-2-methylisoquinolin-1-one hydrochloride] was tested. Which IC50 did it give?
**A.** The IC50 was 500 to 5000 nM.

**Q.** How did the IC50 turn out when CCNS(=O)(=O)c1cccc(-c2cn(C)c(=O)c3ccncc23)c1 [Example 124, N-ethyl-3-(2-methyl-1-oxo-2,6-naphthyridin-4-yl) benzenesulfonamide] was run?
**A.** The IC50 was 500 to 5000 nM.

**Q.** For Cn1cc(-c2cccc(S(C)(=O)=O)c2)n2cncc2c1=O [Example 131, 7-methyl-5-(3-methylsulfonylphenyl)imidazo[1,5-a]pyrazin-8-one], which IC50 is on record?
**A.** Its IC50 is over 5000 nM.

**Q.** CCS(=O)(=O)c1cccc(-c2cc(N)c(=O)n(C)c2)c1 [Example 108, 3-amino-5-(3-ethylsulfonylphenyl)-1-methylpyridin-2-one] was tested. Which IC50 did it give?
**A.** The IC50 was over 5000 nM.

Same assay, conditions: in vitro enzyme inhibition assay

**Q.** Which IC50 does the source give for CCS(=O)(=O)Nc1ncc(Oc2ccc(F)cc2F)c(-c2cc(C)c(=O)n(CC3CCC3)c2)n1 [Example 299, N-[4-[1-(cyclobutylmethyl)-5-methyl-6-oxopyridin-3-yl]-5-(2,4-difluorophenoxy)pyrimidin-2-yl]ethanesulfonamide] here?
**A.** Its IC50 is 500 to 5000 nM.

**Q.** For Cn1cc(-c2cc(NS(C)(=O)=O)ccc2Oc2ccc(F)cc2F)cc(N2CCCC2)c1=O [Example 281, N-[4-(2,4-difluorophenoxy)-3-(1-methyl-6-oxo-5-pyrrolidin-1-ylpyridin-3-yl)phenyl]methanesulfonamide], which IC50 is on record?
**A.** Its IC50 is 500 to 5000 nM.

**Q.** For CCCC1Cc2cc(NS(=O)(=O)CC)cc(-c3cc(C)c(=O)n(C)c3)c2O1 (stereo not shown) [Example 495, N-[7-(1,5-dimethyl-6-oxopyridin-3-yl)-2-propyl-2,3-dihydro-1-benzofuran-5-yl] ethanesulfonamide], which IC50 is on record?
**A.** Its IC50 is under 500 nM.

**Q.** For CCS(=O)(=O)c1ccc(OCC2CC2)c(-c2cn(C)c(=O)c3cncnc23)c1 [Example 232, 8-[2-(cyclopropylmethoxy)-5-ethylsulfonylphenyl]-6-methylpyrido[4,3-d]pyrimidin-5-one], which IC50 is on record?
**A.** Its IC50 is under 500 nM.

**Q.** How did the IC50 turn out when Cc1cc(-c2cc(S(C)(=O)=O)ccc2OCC2CC2)cn(Cc2ccccc2)c1=O [Example 485, 1-benzyl-5-[2-(cyclopropylmethoxy)-5-methylsulfonylphenyl]-3-methylpyridin-2-one] was run?
**A.** Its IC50 is 500 to 5000 nM.

**Q.** Cn1cc(-c2nc(N3CCCS3(=O)=O)ncc2Oc2ccc(F)cc2F)c2ccccc2c1=O [Example 171, 4-[5-(2,4-difluorophenoxy)-2-(1,1-dioxo-1,2-thiazolidin-2-yl)pyrimidin-4-yl]-2-methylisoquinolin-1-one] was tested. Which IC50 did it give?
**A.** Its IC50 is under 500 nM.

**Q.** How did the IC50 turn out when CCc1cnc(NS(=O)(=O)CC)nc1-c1cn(C)c(=O)c2ccccc12 [Example 300, N-[5-ethyl-4-(2-methyl-1-oxoisoquinolin-4-yl)pyrimidin-2-yl]ethanesulfonamide] was run?
**A.** The IC50 was under 500 nM.

**Q.** For Cc1cc(-c2cc(S(=O)(=O)C(C)C)ccc2OCC2CC2)cn(C)c1=O [Example 394, 5-[2-(cyclopropylmethoxy)-5-propan-2-ylsulfonylphenyl]-1,3-dimethylpyridin-2-one], which IC50 is on record?
**A.** Its IC50 is under 500 nM.

**Q.** For Cn1cc(-c2cc(CS(C)(=O)=O)ccc2OCC(F)(F)F)cc(F)c1=O [Example 421, 3-fluoro-1-methyl-5-[5-(methylsulfonylmethyl)-2-(2,2,2-trifluoroethoxy)phenyl]pyridin-2-one], which IC50 is on record?
**A.** The IC50 was under 500 nM.

**Q.** How did the IC50 turn out when Cc1cc(-c2nc(NS(C)(=O)=O)ncc2Oc2ccc(F)cc2F)cn(CC2CCC2)c1=O [Example 298, N-[4-[1-(cyclobutylmethyl)-5-methyl-6-oxopyridin-3-yl]-5-(2,4-difluorophenoxy)pyrimidin-2-yl]methanesulfonamide] was run?
**A.** Its IC50 is 500 to 5000 nM.

**Q.** CCCCc1cnc(S(C)(=O)=O)nc1-c1cn(C)c(=O)c2ccccc12 [Example 304, 4-(5-butyl-2-methylsulfonyl-pyrimidin-4-yl)-2-methylisoquinolin-1-one] was tested. Which IC50 did it give?
**A.** Its IC50 is under 500 nM.

**Q.** For CCS(=O)(=O)c1ccc(OC)c(-c2cc(O)c(=O)n(C)c2)c1 [Example 461, 5-(5-ethylsulfonyl-2-methoxyphenyl)-3-hydroxy-1-methylpyridin-2-one], which IC50 is on record?
**A.** The IC50 was 500 to 5000 nM.

**Q.** For Cc1cc(-c2cc(NS(C)(=O)=O)ccc2Oc2ccc(F)cc2F)cn(C2CCC2)c1=O [Example 484, N-[3-(1-cyclobutyl-5-methyl-6-oxopyridin-3-yl)-4-(2,4-difluorophenoxy)phenyl]methanesulfonamide], which IC50 is on record?
**A.** Its IC50 is under 500 nM.

**Q.** For CCS(=O)(=O)c1ccc(NCC2CC2)c(-c2cn(C)c(=O)c3cncn23)c1 [Example 375, 5-[2-(cyclopropylmethylamino)-5-ethylsulfonylphenyl]-7-methylimidazo[1,5-a]pyrazin-8-one], which IC50 is on record?
**A.** The IC50 was under 500 nM.

**Q.** Which IC50 does the source give for CCS(=O)(=O)Nc1cc(OCc2ccccc2)cc(-c2cc(C)c(=O)n(C)c2)c1 [Example 395, N-[3-(1,5-dimethyl-6-oxopyridin-3-yl)-5-phenylmethoxyphenyl]ethanesulfonamide] here?
**A.** Its IC50 is under 500 nM.

**Q.** Which IC50 does the source give for CC#CCOc1cc(-c2cc(C)c(=O)n(C)c2)cc(S(C)(=O)=O)c1 [Example 340, 5-(3-but-2-ynoxy-5-methylsulfonylphenyl)-1,3-dimethylpyridin-2-one] here?
**A.** The IC50 was under 500 nM.

**Q.** With CCCCc1cnc(S(C)(=O)=O)nc1-c1cc(C)c(=O)n(C(C)C)c1 [Example 508, 5-(5-butyl-2-methylsulfonylpyrimidin-4-yl)-3-methyl-1-propan-2-ylpyridin-2-one] as the molecule, how does the IC50 read?
**A.** The IC50 was under 500 nM.

**Q.** For CCS(=O)(=O)Cc1ccc(OCC(F)(F)F)c(-c2cc(C)c(=O)n(C)c2)c1 [Example 411, 5-[5-(ethylsulfonylmethyl)-2-(2,2,2-trifluoroethoxy)phenyl]-1,3-dimethylpyridin-2-one], which IC50 is on record?
**A.** The IC50 was under 500 nM.

**Q.** Cc1cc(-c2cc(OCc3ccccn3)cc(S(C)(=O)=O)c2)cn(C)c1=O [Example 330, 1,3-dimethyl-5-[3-methylsulfonyl-5-(pyridin-2-ylmethoxy)phenyl]pyridin-2-one] was tested. Which IC50 did it give?
**A.** The IC50 was under 500 nM.

**Q.** Cc1cc(-c2cc(OCc3ccc(F)cc3F)cc(S(C)(=O)=O)c2)cn(C)c1=O [Example 335, 5-[3-[(2,4-difluorophenyl)methoxy]-5-methylsulfonylphenyl]-1,3-dimethylpyridin-2-one] was tested. Which IC50 did it give?
**A.** Its IC50 is under 500 nM.

**Q.** How did the IC50 turn out when CCc1ccc(S(C)(=O)=O)cc1-c1cn(C)c(=O)c2ccccc12 [Example 316, 4-(2-ethyl-5-methylsulfonylphenyl)-2-methylisoquinolin-1-one] was run?
**A.** Its IC50 is under 500 nM.

**Q.** CNc1cc(-c2cc(NS(C)(=O)=O)ccc2Oc2ccc(F)cc2F)cn(C)c1=O [Example 412, N-[4-(2,4-difluorophenoxy)-3-[1-methyl-5-(methylamino)-6-oxopyridin-3-yl]phenyl]methanesulfonamide] was tested. Which IC50 did it give?
**A.** The IC50 was under 500 nM.

**Q.** For COc1ccc(COc2cc(-c3cn(C)c(=O)c4ccccc34)cc(S(C)(=O)=O)c2)cc1 [Example 343, 4-[3-[(4-methoxyphenyl)methoxy]-5-methylsulfonylphenyl]-2-methylisoquinolin-1-one], which IC50 is on record?
**A.** The IC50 was 500 to 5000 nM.

**Q.** With CCOc1ccc(S(C)(=O)=O)cc1-c1cn(C)c(=O)c2c1CCCC2 [Example 216, 4-(2-ethoxy-5-methylsulfonylphenyl)-2-methyl-5,6,7,8-tetrahydroisoquinolin-1-one] as the molecule, how does the IC50 read?
**A.** Its IC50 is under 500 nM.

**Q.** CCCCn1cc(-c2nc(NS(=O)(=O)CC)ncc2Oc2ccc(F)cc2F)cc(C)c1=O [Example 297, N-[4-(1-butyl-5-methyl-6-oxopyridin-3-yl)-5-(2,4-difluorophenoxy)pyrimidin-2-yl]ethanesulfonamide] was tested. Which IC50 did it give?
**A.** Its IC50 is under 500 nM.

**Q.** Which IC50 does the source give for Cc1cc(-c2cc(OCc3cccnc3)cc(S(C)(=O)=O)c2)cn(C)c1=O [Example 338, 1,3-dimethyl-5-[3-methylsulfonyl-5-(pyridin-3-ylmethoxy)phenyl]pyridin-2-one] here?
**A.** Its IC50 is under 500 nM.

**Q.** With CCOc1ccc(S(=O)(=O)CC)cc1-c1cn(C)c(=O)cc1C [Example 458, 5-(2-ethoxy-5-ethylsulfonylphenyl)-1,4-dimethylpyridin-2-one] as the molecule, how does the IC50 read?
**A.** Its IC50 is under 500 nM.

**Q.** How did the IC50 turn out when Cn1cc(-c2cc(S(C)(=O)=O)ccc2OCC2CCC2)ccc1=O [Example 460, 5-[2-(cyclobutylmethoxy)-5-methylsulfonylphenyl]-1-methylpyridin-2-one] was run?
**A.** Its IC50 is under 500 nM.

**Q.** With Cc1cc(-c2nc(S(C)(=O)=O)ncc2Oc2ccc(F)cc2F)cn(C(C)C)c1=O [Example 510, 5-[5-(2,4-difluorophenoxy)-2-methylsulfonylpyrimidin-4-yl]-3-methyl-1-propan-2-ylpyridin-2-one] as the molecule, how does the IC50 read?
**A.** The IC50 was 500 to 5000 nM.

**Q.** How did the IC50 turn out when CCS(=O)(=O)Nc1ccc(Oc2ccc(F)cc2F)c(-c2cn(C)c(=O)c3c2CNCC3)c1 [Example 142, N-[4-(2,4-difluorophenoxy)-3-(2-methyl-1-oxo-5,6,7,8-tetrahydro-2,6-naphthyridin-4-yl)phenyl]ethanesulfonamide] was run?
**A.** Its IC50 is 500 to 5000 nM.

**Q.** For Cc1cc(-c2cc(S(C)(=O)=O)ccc2OCC2CC2)cn(C2CCC2)c1=O [Example 483, 1-cyclobutyl-5-[2-(cyclopropylmethoxy)-5-methylsulfonylphenyl]-3-methylpyridin-2-one], which IC50 is on record?
**A.** The IC50 was under 500 nM.

**Q.** Which IC50 does the source give for CCCCc1cnc(S(C)(=O)=O)nc1-c1cc(C(C)C)c(=O)n(C)c1 [Example 513, 5-(5-butyl-2-methylsulfonylpyrimidin-4-yl)-1-methyl-3-propan-2-ylpyridin-2-one] here?
**A.** The IC50 was under 500 nM.
